Like-named read-outs stand apart in the source and are kept apart here.
Assays:
[1] = test system: DU-145 cell line; assay: MTT assay for cell cytotoxicity; type: cell-based, human; details: DU-145 cells; 72 h; at least three independent experiments; read-out: MTT assay (IC50 ± SD) DU-145
Experimental: (§1) All of synthesis compounds were evaluated cell cytotoxicity by using MTT colorimetric assay on PC-3 and DU-145 cell lines. DU-145 and PC-3 are human hormone-refractory (androgen-independent) prostatic cancer cell lines from American Type Culture Collection (HTB-81™, ATCC, Rockville, Md.)^125 and Bioresource Collection and Research Center (60122, BCRC, Taiwan)^126, respectively. Two of the “classical” cell lines were cultivated in RPMI-1640 medium supplemented with 5% fetal bovine serum (v/v), 100 U/mL penicillin, and […] streptomycin. Approximately 2×10^3 cells were seeded into each well of a 96-well plate and incubated in 5% CO2 at 37° C. for 24 h. To evaluate the in vitro cytotoxicity, all the synthetic compounds were dissolved in DMSO, prepared immediately before the experiments and diluted into the complete medium before being added to each well of a 96-well plate. Each compound was then added to the culture medium for designated various concentrations (0.15, 0.5, 1.5, 5, 15 μM). After 72 h, an amount of 100 μL of MTT (1 mg/mL) was added to each well, and the samples were incubated at 37° C. for 4 h. After removing the MTT solution, 100 μL of DMSO was added to each well and incubated at 37° C. for another 20 mins. The absorbency at 560 nm was measured by using an ELISA reader.
(§2) Results are expressed as mean values of at least three independent experiments. The IC50 values of testing compounds were described in Table 1.

[2] = test system: PC-3 cell line; assay: MTT assay for cell cytotoxicity; type: cell-based, human; details: PC-3 cells, 72 h, at least three independent experiments, read-out: MTT assay (IC50 ± SD) PC-3
Experimental: as §1, §2

[3] = molecular target: T1, TOP I (Topoisomerase I) (Homo sapiens, UniProt P11387); assay: TOP I mediated supercoiled DNA relaxation assay; type: biochemical; details: five different concentrations; TopoGEN TG2005H, TG-2000H-1
T1 construct: purchased TopoGEN TG2005H
T1 sequence (P11387 1-765): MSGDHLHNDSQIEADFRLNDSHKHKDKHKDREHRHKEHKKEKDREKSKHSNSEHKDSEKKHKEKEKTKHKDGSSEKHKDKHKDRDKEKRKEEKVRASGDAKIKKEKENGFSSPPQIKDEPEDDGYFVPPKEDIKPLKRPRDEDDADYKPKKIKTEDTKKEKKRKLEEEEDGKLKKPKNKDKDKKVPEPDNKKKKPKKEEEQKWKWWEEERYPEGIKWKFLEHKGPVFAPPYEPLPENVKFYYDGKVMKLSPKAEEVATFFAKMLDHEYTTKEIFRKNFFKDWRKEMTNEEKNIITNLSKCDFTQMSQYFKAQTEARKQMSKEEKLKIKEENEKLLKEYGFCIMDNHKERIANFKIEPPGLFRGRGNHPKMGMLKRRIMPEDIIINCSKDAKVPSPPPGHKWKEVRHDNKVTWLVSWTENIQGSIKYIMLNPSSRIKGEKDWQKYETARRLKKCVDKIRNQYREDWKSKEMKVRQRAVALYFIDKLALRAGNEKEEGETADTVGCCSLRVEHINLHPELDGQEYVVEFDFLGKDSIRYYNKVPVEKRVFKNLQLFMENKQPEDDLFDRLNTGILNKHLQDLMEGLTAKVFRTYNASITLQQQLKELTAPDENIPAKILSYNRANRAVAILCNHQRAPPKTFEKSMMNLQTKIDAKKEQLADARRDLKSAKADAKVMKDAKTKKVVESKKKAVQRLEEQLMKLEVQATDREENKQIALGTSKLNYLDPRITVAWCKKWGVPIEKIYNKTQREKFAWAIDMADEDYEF

[4] = molecular target: T2, TOP II (Topoisomerase II) (Homo sapiens, UniProt P11388); assay: TOP II-catalyzed relaxation of plasmid DNA assay; type: biochemical; details: for IC50: five different concentrations, TopoGEN TG2005H, TG-2000H-1, read-out: IC50 value, TOP II mediated supercoiled DNA relaxation; for inhibitory effect in TOP II relaxation assay compared with VP-16: primary assay at 25 and/or 50 μM
T2 construct: purchased TopoGEN TG-2000H-1
T2 sequence (P11388 whole entry): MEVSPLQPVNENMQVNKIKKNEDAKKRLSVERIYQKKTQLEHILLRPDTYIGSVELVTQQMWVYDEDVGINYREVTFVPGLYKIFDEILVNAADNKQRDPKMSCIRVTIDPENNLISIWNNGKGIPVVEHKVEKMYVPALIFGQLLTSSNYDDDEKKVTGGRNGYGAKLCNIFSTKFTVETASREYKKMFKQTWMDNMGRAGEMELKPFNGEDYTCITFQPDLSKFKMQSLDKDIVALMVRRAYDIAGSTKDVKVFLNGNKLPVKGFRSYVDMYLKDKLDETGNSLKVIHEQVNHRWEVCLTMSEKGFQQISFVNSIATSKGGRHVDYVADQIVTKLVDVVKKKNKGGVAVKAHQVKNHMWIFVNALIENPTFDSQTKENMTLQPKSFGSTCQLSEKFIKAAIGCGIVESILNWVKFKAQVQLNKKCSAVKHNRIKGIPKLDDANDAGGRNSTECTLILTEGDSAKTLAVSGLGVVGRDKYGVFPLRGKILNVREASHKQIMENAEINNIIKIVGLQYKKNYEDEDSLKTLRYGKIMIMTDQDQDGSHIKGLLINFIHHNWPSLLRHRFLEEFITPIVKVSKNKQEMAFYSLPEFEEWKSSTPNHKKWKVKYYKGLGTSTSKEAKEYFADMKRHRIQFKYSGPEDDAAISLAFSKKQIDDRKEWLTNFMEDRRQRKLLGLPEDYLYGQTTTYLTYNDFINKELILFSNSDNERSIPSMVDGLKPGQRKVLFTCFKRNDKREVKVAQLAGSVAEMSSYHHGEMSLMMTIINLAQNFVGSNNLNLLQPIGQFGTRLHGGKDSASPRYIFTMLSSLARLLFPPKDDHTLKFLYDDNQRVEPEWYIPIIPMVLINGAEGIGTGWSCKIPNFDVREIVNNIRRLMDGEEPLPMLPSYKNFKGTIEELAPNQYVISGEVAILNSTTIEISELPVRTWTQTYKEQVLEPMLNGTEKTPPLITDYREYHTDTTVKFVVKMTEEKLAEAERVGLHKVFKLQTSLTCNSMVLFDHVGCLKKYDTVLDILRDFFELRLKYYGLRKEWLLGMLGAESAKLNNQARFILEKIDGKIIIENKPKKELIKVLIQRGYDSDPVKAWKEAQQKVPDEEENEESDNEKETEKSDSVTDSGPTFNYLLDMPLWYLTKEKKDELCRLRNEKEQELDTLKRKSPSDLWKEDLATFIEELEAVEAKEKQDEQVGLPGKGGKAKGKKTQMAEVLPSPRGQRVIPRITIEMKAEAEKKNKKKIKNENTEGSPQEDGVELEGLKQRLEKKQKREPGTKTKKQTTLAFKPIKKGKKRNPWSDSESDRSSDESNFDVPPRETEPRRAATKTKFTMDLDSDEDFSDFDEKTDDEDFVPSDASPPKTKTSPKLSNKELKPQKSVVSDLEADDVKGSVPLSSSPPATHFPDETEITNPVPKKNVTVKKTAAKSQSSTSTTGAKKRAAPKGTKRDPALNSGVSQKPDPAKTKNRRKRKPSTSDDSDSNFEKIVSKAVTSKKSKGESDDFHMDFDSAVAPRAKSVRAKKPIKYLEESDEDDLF
Experimental: We also performed TOP II-catalyzed relaxation of plasmid DNA assays (FIG. 5-7) to evaluate if compounds could inhibit TOP II. […] The IC50 value of compounds 7, N7, N8, N14, N15, N18, and N19 were about 10, 10, 1, 10, 5, 1, and 1 μM, respectively (detect by TopoGEN TG2005H, TG-2000H-1).

[5] = molecular target: T1, TOP I (Topoisomerase I); assay: TOP I mediated supercoiled DNA relaxation assay; type: biochemical; details: primary assay at 25 and/or 50 μM
Experimental: According to the cell cytotoxicity, compounds 5, 7, 8, 16, 19, N2, N7, N8, N9, N14-N19, and N25 were also selected for primary TOP I and II activities assays at 25 and/or 50 μM (FIG. 2-4).

IC50 [3] | melting point | IC50 [4] | inhibitory effect in TOP I activity assay compared with CPT [5] | SMILES | IC50 [1] | IC50 [2] | inhibitory effect in TOP II relaxation assay compared with VP-16 [4] | IC50 ([2]; Homo sapiens)
 |  |  |  | Nc1ccc(CCNc2nc3ccccc3c3c(=O)c4cc(Cl)ccc4sc23)cc1 [Compound N32, 6-((4-Aminophenethyl)amino)-10-chloro-12H-thiochromeno[2,3c]quinolin-12-one] | 13.6 ± 1.39 µM | 10.1 ± 0.94 µM |  | 
 |  |  |  | O=c1c2cc(Cl)ccc2sc2c(NCCCCCO)nc3ccccc3c12 [Compound N11, 10-Chloro-6-(5-pentanolamino)-12H-thiochromeno[2,3-c]quinolin-12-one] | 4.95 ± 0.58 µM | 8.38 ± 3.39 µM |  | 
 |  |  |  | O=c1c2cc(Cl)ccc2sc2c(NCCCO)nc3ccccc3c12 [Compound N10, 10-Chloro-6-(3-propanolamino)-12H-thiochromeno[2,3-c]quinolin-12-one] | 5.94 ± 2.03 µM | 6.31 ± 4.11 µM |  | 
~10 µM | 211 to 213 °C | ~10 µM | more potent inhibitory effects than CPT | O=c1c2cc(Cl)ccc2sc2c(N3CCNCC3)nc3ccccc3c12 [Compound 7, 10-Chloro-6-(piperazin-1-yl)-12H-thiochromeno[2,3-c]quinolin-12-one] |  |  | more potent inhibitory effects than the positive agent VP-16 | 
 |  |  |  | COc1cc([C@@H]2c3cc4c(cc3[C@@H](O[C@@H]3O[C@@H]5CO[C@@H](C)O[C@H]5[C@H](O)[C@H]3O)[C@H]3COC(=O)[C@H]23)OCO4)cc(OC)c1O [Etoposide (VP-16), Etoposide, reference compound] |  |  |  | 4.33 ± 0.86 µM
~5 µM | 141 to 143 °C | ~5 µM | more potent inhibitory effects than CPT | O=c1c2cc(Cl)ccc2sc2c(NCCNCCO)nc3ccccc3c12 [Compound N15, 10-Chloro-6-((2-((2-hydroxyethyl)amino)ethyl)amino)-12H-thiochromeno[2,3-c]quinolin-12-one] |  |  | more potent inhibitory effects than the positive agent VP-16 | 
~25 µM | 142 to 143 °C | ~1 µM | more potent inhibitory effects than CPT | CCN(CC)CCCNc1nc2ccccc2c2c(=O)c3cc(Cl)ccc3sc12 [Compound N18, 10-Chloro-6-((3-(diethylamino)propyl)amino)-12H-thiochromeno[2,3-c]quinolin-12-one] |  |  | more potent inhibitory effects than the positive agent VP-16 | 

Reference: patent US8927717B1, “Thiochromeno[2,3-c]quinolin-12-one derivatives, preparation method and application thereof” (National Defense Medical Center, priority 2014, dated 2015)
